Source: patent publication US20100298141A1, “SUBSTITUTED PYRIDINE N-OXIDE HERBICIDES” (E. I. DU PONT DE NEMOURS AND COMPANY, priority 2007, published 2010)

Legend:
velvetleaf = assay: Test C pre-/postemergence test; assay type: in vivo, Abutilon theophrasti; settings: Preemergence
Summary of the method: (§1)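 Compounds in a non-phytotoxic solvent with surfactant applied preemergence to seeded pots and, at the same time, postemergence to plants 2–18 cm tall (1- to 4-leaf stage). Paddy tests: pots flooded to 3 cm, compound applied into the water, depth held throughout.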

giant foxtail [1] = assay: Test A pre-/postemergence greenhouse test; assay type: in vivo, Setaria faberi; settings: for Foxtail, Giant plant response rating: 0 to 100 scale
Summary of the method: (§2)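 Each test compound, dissolved in a non-phytotoxic solvent mixture with surfactant, was sprayed directly onto seeded soil (loam/sand blend) and, at the same moment, onto seedlings carrying one to two leaves. Around ten greenhouse days later, plants were rated visually for injury relative to untreated controls.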

woolly cupgrass = assay: Test C pre-/postemergence test; assay type: in vivo, Eriochloa villosa; settings: Preemergence
Summary of the method: as §1

cocklebur = assay: Test C pre-/postemergence test; assay type: in vivo, Xanthium strumarium
Summary of the method: as §1

blackgrass = assay: Test C pre-/postemergence test; assay type: in vivo, Alopecurus myosuroides
Summary of the method: as §1

giant foxtail [2] = assay: Test C pre-/postemergence test; assay type: in vivo, Setaria faberii; settings: Preemergence
Summary of the method: as §1

morningglory = assay: Test A pre-/postemergence greenhouse test; assay type: in vivo, Ipomoea spp.; settings: for Morningglory plant response rating: 0 to 100 scale
Summary of the method: as §2

Surinam grass = assay: Test C pre-/postemergence test; assay type: in vivo, Brachiaria decumbens; settings: Preemergence
Summary of the method: as §1

redroot pigweed = assay: Test A pre-/postemergence greenhouse test; assay type: in vivo, Amaranthus retroflexus; settings: for Pigweed plant response rating: 0 to 100 scale
Summary of the method: as §2

common ragweed = assay: Test C pre-/postemergence test; assay type: in vivo, Ambrosia elation; settings: Preemergence
Summary of the method: as §1

wheat [3] = assay: Test C pre-/postemergence test; assay type: in vivo, Triticum aestivum; settings: Preemergence
Summary of the method: as §1

kochia = assay: Test C pre-/postemergence test; assay type: in vivo, Kochia scoparia; settings: Preemergence, 31 g ai/ha; scale 0 to 100 (0 no effect, 100 complete control)
Summary of the method: as §1

lambsquarters = assay: Test C pre-/postemergence test; assay type: in vivo, Chenopodium album; settings: 62 g ai/ha, Preemergence; scale 0 to 100
Summary of the method: as §1

downy brome = assay: Test C pre-/postemergence test; assay type: in vivo, Bromus tectorum
Summary of the method: as §1

wheat [4] = assay: Test A pre-/postemergence greenhouse test; assay type: in vivo, Triticum aestivum; settings: for Wheat plant response rating: 0 to 100 scale
Summary of the method: as §2

wild oat = assay: Test C pre-/postemergence test; assay type: in vivo, Avena fatua; settings: Preemergence
Summary of the method: as §1

eastern black nightshade = assay: Test C pre-/postemergence test; assay type: in vivo, Solanum ptycanthum; settings: Preemergence
Summary of the method: as §1

catchweed bedstraw = assay: Test C pre-/postemergence test; assay type: in vivo, Galium aparine; settings: Preemergence
Summary of the method: as §1

[5] = tested on: common (oilseed) sunflower; assay: Test C pre-/postemergence test; assay type: in vivo, Helianthus annuus; settings: Preemergence
Summary of the method: as §1

[6] = 31 g ai/ha, scale 0 to 100 (0 no effect, 100 complete control)
[7] = Postemergence, 125 g ai/ha, 0 is no effect, 100 is complete control
[8] = Postemergence, 500 g ai/ha, 0 is no effect, 100 is complete control
[9] = Preemergence, 125 g ai/ha, 0 no effect, 100 complete control
[10] = Preemergence, 500 g ai/ha, 0 to 100 scale where 0 is no effect and 100 is complete control
[11] = 62 g ai/ha, Preemergence, scale 0 to 100
[12] = Preemergence, 31 g ai/ha, scale 0 to 100 (0 no effect, 100 complete control)
[13] = preemergence, 125 g ai/ha, scale 0 (no effect) to 100 (complete control)

Cn1nc(C(F)(F)F)c(CS(=O)(=O)c2cc(C(C)(C)C)cc[n+]2[O-])c1OC(F)F [Compound 25]
85: Foxtail, Giant plant response rating (giant foxtail [2]; 62 g ai/ha, scale 0 to 100) | Oat, Wild plant response rating (wild oat; 62 g ai/ha, scale 0 to 100)
20: Plant response rating, Velvetleaf (velvetleaf; [6]) | Wheat plant response rating (wheat [3]; 62 g ai/ha, scale 0 to 100)
50: Surinam Grass plant response rating (Surinam grass; 62 g ai/ha, scale 0 to 100) | Plant response rating (0 to 100), Bromegrass, Downy (downy brome; Preemergence, 250 g ai/ha)
0: Cocklebur plant response rating (cocklebur; [11]) | Plant response rating, Cocklebur (cocklebur; [12]) | Plant response rating (0 to 100), Cocklebur (cocklebur; Preemergence, 250 g ai/ha) | Cocklebur plant response rating (cocklebur; [13]) | Blackgrass plant response rating (blackgrass; [11]) | Plant response rating, Blackgrass (blackgrass; [12]) | Plant response rating (0 to 100), Blackgrass (blackgrass; Preemergence, 250 g ai/ha) | Blackgrass plant response rating (blackgrass; [13]) | Morningglory plant response rating (morningglory; [9]) | Plant response rating, Surinam Grass (Surinam grass; [6]) | Plant response rating, Ragweed (common ragweed; [6]) | Plant response rating, Wheat (wheat [3]; [6]) | Plant response rating, Kochia (kochia) | Bromegrass, Downy plant response rating (downy brome; [11]) | Plant response rating, Bromegrass, Downy (downy brome; [12]) | Bromegrass, Downy plant response rating (downy brome; [13]) | Wheat plant response rating (wheat [4]; [7]) | Plant response rating, Oat, Wild (wild oat; [6]) | Sunflower plant response rating ([5]; 62 g ai/ha, scale 0 to 100) | Plant response rating, Sunflower [5, 6]
60: Cupgrass, Woolly plant response rating (woolly cupgrass; 62 g ai/ha, scale 0 to 100) | Morningglory plant response rating (morningglory; [8]) | Lambsquarters plant response rating (lambsquarters) | Plant response rating, Wheat (wheat [4]; [10])
80: Velvetleaf plant response rating (velvetleaf; 62 g ai/ha, scale 0 to 100) | Plant response rating, Morningglory (morningglory; [10])
70: Foxtail, Giant plant response rating (giant foxtail [1]; [8]) | Plant response rating, Galium (catchweed bedstraw; [6])
30: Foxtail, Giant plant response rating (giant foxtail [1]; [7]) | Pigweed plant response rating (redroot pigweed; [7])
98: Galium plant response rating (catchweed bedstraw; 62 g ai/ha, scale 0 to 100)
40: Plant response rating, Cupgrass, Woolly (woolly cupgrass; [6]) | Plant response rating, Foxtail, Giant (giant foxtail [2]; [6]) | Pigweed plant response rating (redroot pigweed; [8]) | Wheat plant response rating (wheat [4]; [8]) | Wheat plant response rating (wheat [4]; [9])
10: Morningglory plant response rating (morningglory; [7]) | Ragweed plant response rating (common ragweed; 62 g ai/ha, scale 0 to 100)
100: Foxtail, Giant plant response rating (giant foxtail [1]; [9]) | Plant response rating, Foxtail, Giant (giant foxtail [1]; [10]) | Plant response rating (0 to 100), Cupgrass, Woolly (woolly cupgrass; 250 g ai/ha) | Pigweed plant response rating (redroot pigweed; [9]) | Plant response rating, Pigweed (redroot pigweed; [10]) | Nightshade plant response rating (eastern black nightshade; 62 g ai/ha, scale 0 to 100) | Plant response rating, Nightshade (eastern black nightshade; [6]) | Plant response rating (0 to 100), Galium (catchweed bedstraw; 250 g ai/ha)
